Values belong to the compound of their own block, whether it stands above or below them.
Legend:
[1] = tested on: hair growth of hamster flank organs; test: Golden Syrian hamster assay (flank organ hair mass after topical application); type: in vivo; conditions: for Treated (mg) hair mass: treated flank organ, mean ± SEM; for Percent Inhibition (mean ± SEM) of hair growth: vs vehicle treated side
Source text: Male intact Golden Syrian hamsters are considered acceptable models for human beard hair growth in that they display oval shaped flank organs, one of each side, each about 8 mm. in major diameter, which growth thick black and coarse hair similar to human beard hair. These organs produce hair in response to androgens in the hamster. To evaluate the effectiveness of a particular arginase inhibitor the flank organs of each of a group of hamsters are depilated by applying a thioglycolate based chemical depilatory (Surgex). To one organ of each animal 10 μl of vehicle alone once a day is applied, while to the other organ of each animal an equal amount of vehicle containing an arginase inhibitor is applied. After thirteen applications (one application per day for five days a week), the flank organs are shaved and the amount of recovered hair (hair mass) from each is weighed. Percent-reduction of hair growth is calculated by subtracting the hair mass (mg) value of the test compound treated side from the hair mass value of the vehicle treated side; the delta value obtained is then divided by the hair mass value of the vehicle treated side, and the resultant number is multiplied by 100.
The above-described assay will be referred to herein as the "Golden Syrian hamster" assay.

hair follicle arginase = test: In vitro assay for inhibitors of hair follicle arginase; type: biochemical; conditions: compound 10 μM, hamster flank organ hair follicle extract, 5 minutes at 37° C., ornithine formation by HPLC
Description: Extracts of hair follicles were obtained by excising and sonicating hair follicles obtained from hamster flank organs. The hair follicles from the hamster flank organ were excised and sonicated in a 0.01M Tris-buffered solution, pH 7.5. The sonicated extracts were centrifuged at 12,000×g, and the supernatant was used to measure arginase activity. Final reaction volumes were achieved by using 90 μl of the follicle supernatant, which was mixed with 100 μl of the Tris buffer (with or without the inhibitor), and 10 μl of 20 mM arginine incubated for 5 minutes at 37° C. The enzyme reaction was stopped by separating the enzyme from the substrate with a 10,000 molecular weight cut off filter. The product formed, ornithine, was separated from the substrate arginine using reverse phase HPLC methodology. An aliquot of the reaction was used to generate 20 μl of the filtrate which was reacted with 20 μl of O-pthalaldehyde (OPA) reagent. This reagent rapidly reacts with all primary amino acids to form fluorescent adducts that are separated on a C18 column (15 cm×3.9 mm). The 40 μl of derivatized sample is injected into the HPLC column and eluted with a stepwise gradient starting at 100% Buffer A (0.024M sodium acetate, 0.024M sodium phosphate, pH 4.0/methanol/tetrahydrofuran in a ratio of 81:15:4) and ending in a 50/50 mixture of Buffer A and Buffer B (methanol/water/tetrahydrofuran in a ratio of 75:15:10). A fluorescent detector was used to monitor the amino acid peaks as they eluted off the column.

[2] = dose 7.5%, vehicle A, pH 3.5, 13 applications
[3] = dose 10%, vehicle A, pH not given, 13 applications
[4] = dose 10%, vehicle B, pH 7.0, 13 applications
[5] = dose 10%, vehicle H2O, 13 applications
[6] = dose 10%, vehicle A, pH 6.5, 13 applications

SMILES: N=C(NO)NCCC[C@H](N)C(=O)O [N^-G -Hydroxy-L-arginine]
Treated (mg) hair mass [1, 3]: 0.97 ± .19 mg
Percent Inhibition (mean ± SEM) of hair growth [1, 3]: 66 ± 6
% Inhibition of hair follicle arginase (hair follicle arginase): 98%

SMILES: CC(C)(N)C(=O)O [α-Aminoisobutyric acid]
Treated (mg) hair mass [1, 5]: 1.96 ± 2.1 mg
Percent Inhibition (mean ± SEM) of hair growth [1, 5]: 34 ± 9
% Inhibition of hair follicle arginase (hair follicle arginase): 27%

SMILES: CCN=C=NCCCN(C)C [1-Ethyl-3-(3-dimethylaminopropyl)-carbodiimide]
Treated (mg) hair mass [1, 6]: 0.9 ± 0.9 mg
Percent Inhibition (mean ± SEM) of hair growth [1, 6]: 57 ± 5
% Inhibition of hair follicle arginase (hair follicle arginase): 64%

Now from value to compound, other results behind:

% Inhibition of hair follicle arginase (hair follicle arginase): 64%
SMILES: Cc1ccc(S(=O)(=O)N[C@@H](CCCNC(=N)N)C(=O)O)cc1 [N-Tosyl-L-arginine]
Treated (mg) hair mass [1, 2]: 0.83 ± .13 mg
Percent Inhibition (mean ± SEM) of hair growth [1, 2]: 42 ± 13

% Inhibition of hair follicle arginase (hair follicle arginase): 50%
SMILES: CC(NC(CCCNC(=N)N)C(=O)O)C(=O)O (stereo not drawn) [Octopine]
Treated (mg) hair mass [1, 4]: 0.45 ± .07 mg
Percent Inhibition (mean ± SEM) of hair growth [1, 4]: 68 ± 6
